According to patent publication US20190359560A1, “ANTI-INFLAMMATORY DRUG AND USES THEREOF” (KYUSHU UNIVERSITY, NATIONAL UNIVERSITY CORPORATION, priority 2015, published 2019):

Columns and labels:
[1] = tested on: nuclear receptor RARα mRNA; test: RARα mRNA expression in Hepa1-6 cells (qRT-PCR); type: cell-based, mouse; settings: 10 μM, 24 hours
[2] = tested on: G0S2 transcriptional activity regulatory region; test: Luciferase assay with G0S2 transcriptional activity regulatory regions of each length in NIH3T3 cells; type: cell-based, mouse; settings: NIH3T3 stable cells, 10 μM, 24 hours
Method: Subsequently, these expression vectors were transfected into NIH3T3 cells, which are mouse fibroblast cells, to construct cells stably expressing luciferase.
Subsequently, Compound No. 2 or DMSO (control) at a final concentration of 10 μM was added to the medium of each cell. Subsequently, the cells were recovered after 24 hours and the luciferase activity was measured.

[3] = tested on: G0S2 protein; test: LPS-administered mice: G0S2 protein in liver (Western blotting); type: in vivo; settings: LPS 10 μg/mouse tail vein; 5 mg/kg subcutaneous 1 hour after LPS; liver 5 hours later; vs LPS group
Method: LPS (10 μg/mouse) was administered to ICR male mice by tail vein injection to prepare an LPS-administered group. In addition, a mouse to which physiological saline was administered instead of LPS was prepared and used as a control group. Subsequently, the LPS-administered group was divided into two groups, in which 1 hour after the administration of LPS, Compound No. 2 was subcutaneously administered at a dose of 5 mg/kg to the dorsal region of mice of one group which was then served as an LPS+No. 2-administered group. Subsequently, 5 hours after the administration of Compound No. 2, mice of each group were sacrificed and the liver was harvested.
Subsequently, the expression level of the G0S2 protein in the liver of mice of each group obtained was quantified by Western blotting. FIG. 11A is a graph showing the quantitative results of the G0S2 protein.

[4] = tested on: G0S2 mRNA; test: G0S2 mRNA in liver of normal mice; type: in vivo, mouse; settings: normal ICR male mice, 15 mg/kg subcutaneous
Method: An effect of Compound No. 2 with a lower IC50 value on the expression level of G0S2 mRNA in the liver of normal mice was examined. Compound No. 2 was subcutaneously administered on the dorsal region of ICR male mice at a dose of 15 mg/kg. The expression level of G0S2 mRNA in the liver at 30 minutes, 1, 2, 4, 6, 12, and 24 hours after the administration of Compound No. 2 was measured.

[5] = tested on: Ccl2 mRNA; test: Ccl2 mRNA in Hepa1-6 cells exposed to LPS or TNFα; type: cell-based, mouse; settings: 10 μM, 12 hours
Method: (§1) Next, whether or not Compound No. 2 whose effect in vivo was confirmed has an effect to antagonize the activation of an inflammatory signal was examined. Hepa1-6 cells were exposed to Compound No. 2 at a dose of 10 μM simultaneously with exposure to lipopolysaccharide (LPS) or TNFα which activates NF-κB for which the G0S2 protein acts as a regulator. As shown in FIGS. 10A and 10B, the cells were recovered 12 hours after the exposure and the expression level of Ccl2 mRNA was measured. […] In addition, 25 μg of LPS was administered to the tail vein of a mouse to thereby construct a hepatitis model. 30 minutes after the administration of LPS, Compound No. 2 (5 mg/kg) was administered to the tail vein of the mouse, and the liver was sampled at 6 hours.

[6] = tested on: STAT5 protein; test: Nuclear abundance of STAT5 protein in NIH3T3 cells (Western blotting); type: cell-based, mouse; settings: NIH3T3 cells, 2.5, 5 and 10 μM, 24 hours, vs control
Method: Compound No. 2 or DMSO (control) at final concentrations of 2.5, 5 and 10 μM was added to the medium of NIH3T3 cells, which are mouse fibroblasts. Subsequently, the cells were recovered after 24 hours, the nuclear protein was prepared, and the abundance of the STAT5 protein was measured by Western blotting.

[7] = tested on: G0S2 promoter (−2030→+10); test: G0S2 promoter (−2030→+10) luciferase assay in Hepa1-6 cells; type: cell-based, mouse; settings: Hepa1-6 reporter cells, 10 μM, 24 hours
Method: To get closer to the environment in the liver, a cell stably expressing an expression cassette in which a luciferase gene was ligated to the downstream side of the G0S2 promoter (−2030→+10) was constructed in the Hepa1-6 cell, which is a mouse hepatoma-derived cell. Using this cell, an effect of the candidate compounds on the luciferase activity was evaluated in the same manner as in the primary screening described above.

[8] = tested on: G0S2 promoter; test: G0S2 promoter luciferase activity in O-4000E cell line, IC50; type: cell-based, mouse; settings: O-4000E cells, 24 hours after exposure
Method: The present inventors have searched for a G0S2 gene transcription inhibitor. In searching, the present inventors have received a compound library consisting of 9600 compounds (Core library) from the Open Innovation Center for Drug Discovery, The University of Tokyo. For this compound library, primary screening was carried out by evaluating an effect of compounds on a luciferase activity using a 384-well plate. The drug efficacy evaluation was studied three times for each compound (final concentration of 10 μM) using a cell line stably expressing an expression cassette in which a luciferase gene was ligated to the downstream side of the G0S2 promoter (−2030→−1378), and compounds which reduced a luciferase activity to less than ¼ were extracted from all studies. As a result, 175 compounds were hit.
For the evaluation of drug efficacy of Compound Nos. 1 and 2, which are hit compounds, an IC50 was calculated. The O-4000E cell line was seeded, and Compound Nos. 1 and 2 were serially diluted in […] so as to have final concentrations of 0.15625 μM to 10 μM, followed by exposure of the cells to the compounds. The luciferase activity was measured 24 hours after the exposure, and the curve fitting was carried out to calculate an IC50 of the compounds.
Detailed drug efficacy evaluation at low concentrations was carried out for the compound of Example 2 (NS-3-011) whose drug efficacy at a concentration of less than 10 μM was observed based on the studies so far and which is expected to have an effect equal to or more than that of Compound No. 2. First, using O-4000E cells, IC50 of Compound No. 2 and the compound of Example 2 (NS-3-011) on the G0S2 promoter activity was calculated.

[9] = tested on: Ccl2 mRNA; test: LPS hepatitis model mouse: Ccl2 mRNA in liver; type: in vivo
Method: as §1
LPS (10 μg/mouse) was administered to ICR male mice by tail vein injection to prepare an LPS-administered group. […]
In addition, for the liver of mice of each group, the expression level of mRNA of Ccl2, which is a target gene of NF-κB, was quantified by real-time PCR. FIG. 11C is a graph showing the quantitative results of the expression level of mRNA of Ccl2.
10 μg of LPS was intraperitoneally administered to mice to construct a hepatitis model. […] 5 hours after the administration of each compound, the liver was harvested from each mouse and the expression level of Ccl2 was quantified by real-time PCR.

**Q.** With `CCCCCCNC(=N)NCc1ccccc1` [Compound No. 2] as the molecule, how does the “expression level of nuclear receptor RARα mRNA” value [1] read?
**A.** The value was “no change”.

**Q.** What about the “effect of inhibiting the expression of luciferase when the STAT5/6 binding region disappears” value [2] of the same molecule?
**A.** Its value is “decreased”.

**Q.** What about the “expression of G0S2 protein in the liver” value [3] of the same molecule?
**A.** Its value is “significantly inhibited”.

**Q.** What about the “expression level of G0S2 mRNA in the liver” value ([4]; 2 hours and 12 hours) of the same molecule?
**A.** Its value is “significantly decreased”.

**Q.** And the “expression level of G0S2 mRNA in the liver” value ([4]; 4 hours after administration)?
**A.** The value was “tended to decrease to about half”.

**Q.** And the “expression of Ccl2 mRNA increased by LPS” value ([5]; LPS 100 ng/mL)?
**A.** The value was “significantly inhibited”.

**Q.** And the “expression of Ccl2 mRNA increased by TNFα” value ([5]; TNFα 200 ng/mL)?
**A.** The value was “significantly inhibited”.

**Q.** What about the “nuclear abundance of the STAT5 protein” value [6] of the same molecule?
**A.** The value was “decreased in a dose-dependent manner”.

**Q.** What about the “G0S2 promoter (−2030→+10) activity (relative value)” value [7] of the same molecule?
**A.** Its value is “less than ½”.

**Q.** And the IC50 ([8]; Mus musculus, 24 h)?
**A.** The IC50 was 2.25 µM.

**Q.** What about the IC50 [8] of the same molecule?
**A.** Its IC50 is 2.31 µM.

**Q.** What about the “expression level of Ccl2 mRNA in the liver” value ([9]; LPS 10 μg/mouse tail vein, 5 mg/kg subcutaneous 1 hour after LPS, liver 5 hours later, vs LPS group) of the same molecule?
**A.** The value was “significantly decreased”.

**Q.** What about the “expression of Ccl2 mRNA in the liver” value ([9]; LPS 25 μg tail vein, compound 5 mg/kg tail vein 30 minutes after LPS, liver at 6 hours) of the same molecule?
**A.** Its value is “significantly inhibited”.
